ChEMBL document CHEMBL1201862, “PubChem BioAssay data set” (2004)
Where “and” joins values, the source holds several entries; their conditions need not be identical. Equal values may be shown once.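 96-well plates; 48 h exposure; 5 concentrations. Endpoints by linear interpolation between flanking doses. Not reached: highest tested concentration assigned. The concentration for 50% growth inhibition is given as GI50.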 Calls of active or inactive are those of the source. No stated cut-off is given here; in the data, active = GI50 up to about 1.1 µM and inactive = higher.

Columns and labels:
Test in all cases: growth of human tumour cells (NCI), 48 h
[1] = test system: SN12C
[2] = test system: A549
[3] = test system: SK-OV-3
[4] = test system: TK-10
[5] = test system: NCI-H460
[6] = test system: 786-0
[7] = test system: U-251
[8] = test system: HL-60
[9] = test system: PC-3
[10] = test system: COLO 205
[11] = test system: NCI/ADR-RES
[12] = test system: OVCAR-8
[13] = test system: MDA-MB-435
[14] = test system: OVCAR-5
[15] = test system: EKVX
[16] = test system: T47D
[17] = test system: SK-MEL-5
[18] = test system: OVCAR-3
[19] = test system: KM12
[20] = test system: UACC-62
[21] = test system: RXF 393
[22] = test system: SR
[23] = test system: MCF7
[24] = test system: SNB-19
[25] = test system: UO-31
[26] = test system: RPMI-8226
[27] = test system: NCI-H23
[28] = test system: SW-620
[29] = test system: ACHN
[30] = test system: MOLT-4
[31] = test system: OVCAR-4
[32] = test system: CCRF-CEM
[33] = test system: UACC-257
[34] = test system: MDA-MB-231
[35] = test system: HOP-92
[36] = test system: SF-268
[37] = test system: HCT-15
[38] = test system: A498
[39] = test system: HT-29
[40] = test system: M14
[41] = test system: HCT-116
[42] = test system: MDA-N
[43] = test system: HCC 2998
[44] = test system: CAKI-1
[45] = test system: SF-539
[46] = test system: SK-MEL-28
[47] = test system: DU-145
[48] = test system: NCI-H522
[49] = test system: IGROV-1
[50] = test system: HOP-62
[51] = test system: LOX IMVI
[52] = test system: SNB-75
[53] = test system: Hs-578T
[54] = test system: SF-295
[55] = test system: Malme-3M
[56] = test system: NCI-H226
[57] = test system: BT-549
[58] = test system: K562
[59] = test system: SK-MEL-2

SMILES: C=CC(C)(C)/C(=C\CO[Si](C(C)C)(C(C)C)C(C)C)C(=O)N(C)c1ccccc1I
- GI50 [1]: 16.2 µM (inactive)
- GI50 [2]: 10.7 µM (inactive)
- GI50 [3]: 16.3 µM (inactive)
- GI50 [4]: 13.4 µM (inactive)
- GI50 [5]: 13.6 µM (inactive)
- GI50 [6]: 14.5 µM (inactive)
- GI50 [7]: 11.5 µM (inactive)
- GI50 [8]: 1.73 µM (inactive)
- GI50 [9]: 2.71 µM (inactive)
- GI50 [10]: 16.4 µM (inactive)
- GI50 [11]: 19.5 µM (inactive)
- GI50 [12]: 14.8 µM (inactive)
- GI50 [13]: 24.9 µM (inactive)
- GI50 [14]: 13.9 µM (inactive)
- GI50 [15]: 16 µM (inactive)
- GI50 [16]: 9.98 µM (inactive)
- GI50 [17]: 17.7 µM (inactive)
- GI50 [18]: 11.6 µM (inactive)
- GI50 [19]: 27.5 µM (inactive)
- GI50 [20]: 13.1 µM (inactive)
- GI50 [21]: 11.4 µM (inactive)
- GI50 [22]: 6.81 µM (inactive)
- GI50 [23]: 11.5 µM (inactive)
- GI50 [24]: 14.5 µM (inactive)
- GI50 [25]: 12.8 µM (inactive)
- GI50 [26]: 2.96 µM (inactive)
- GI50 [27]: 11 µM (inactive)
- GI50 [28]: 12.6 µM (inactive)
- GI50 [29]: 13.1 µM (inactive)
- GI50 [30]: 9.79 µM (inactive)
- GI50 [31]: 23 µM (inactive)
- GI50 [32]: 5.79 µM (inactive)
- GI50 [33]: 13.3 µM (inactive)
- GI50 [34]: 13.3 µM (inactive)
- GI50 [35]: 8.61 µM (inactive)
- GI50 [36]: 11.5 µM (inactive)
- GI50 [37]: 16.4 µM
- GI50 [38]: 20.3 µM (inactive)
- GI50 [39]: 13.4 µM (inactive)
- GI50 [40]: 15.8 µM (inactive)
- GI50 [41]: 3.13 µM (inactive)
- GI50 [42]: 16.4 µM (inactive)
- GI50 [43]: 13.2 µM (inactive)
- GI50 [44]: 19 µM (inactive)
- GI50 [45]: 18 µM (inactive)
- GI50 [46]: 14.2 µM (inactive)
- GI50 [47]: 13.9 µM (inactive)
- GI50 [48]: 5.62 µM (inactive)
- GI50 [49]: 15.5 µM (inactive)
- GI50 [50]: 16.3 µM (inactive)
- GI50 [51]: 14.3 µM (inactive)
- GI50 [52]: 16.3 µM (inactive)
- GI50 [53]: 11.8 µM (inactive)
- GI50 [54]: 13 µM (inactive)

SMILES: CCOC(=O)c1c(-c2ccc(OC)c(O)c2)c(C#N)c(=S)n(C2OC(COC(C)=O)C(OC(C)=O)C(OC(C)=O)C2OC(C)=O)c1-c1ccccc1 (stereo not drawn)
- GI50 [2]: 51.9 µM (inactive)
- GI50 [5]: 67.1 µM (inactive) and 34 µM (inactive)
- GI50 [7]: 90.4 µM (inactive)
- GI50 [12]: > 100 µM (inactive)
- GI50 [14]: > 100 µM (inactive)
- GI50 [21]: 50.1 µM (inactive)
- GI50 [22]: > 100 µM (inactive) and 60.3 µM (inactive)
- GI50 [55]: 32.4 µM (inactive)
- GI50 [24]: > 100 µM (inactive) and 83.2 µM (inactive)
- GI50 [28]: 59.7 µM (inactive)
- GI50 [56]: > 100 µM (inactive)
- GI50 [38]: > 100 µM (inactive)
- GI50 [48]: 21.4 µM (inactive)
- GI50 [54]: 52.8 µM (inactive)
- GI50 [57]: 28.8 µM (inactive)

SMILES: NNC(=O)CC(=O)Nc1ccc(S(=O)(=O)c2ccc(NC(=O)CC(=O)NN)cc2)cc1
- GI50 [1]: > 100 µM (inactive)
- GI50 [2]: > 100 µM (inactive)
- GI50 [3]: > 100 µM (inactive)
- GI50 [4]: > 100 µM (inactive)
- GI50 [5]: > 100 µM (inactive)
- GI50 [6]: > 100 µM (inactive)
- GI50 [7]: > 100 µM (inactive)
- GI50 [8]: > 100 µM (inactive)
- GI50 [9]: > 100 µM (inactive)
- GI50 [10]: > 100 µM (inactive)
- GI50 [11]: > 100 µM (inactive)
- GI50 [12]: > 100 µM (inactive)
- GI50 [13]: > 100 µM (inactive)
- GI50 [14]: > 100 µM (inactive)
- GI50 [15]: > 100 µM (inactive)
- GI50 [16]: > 100 µM (inactive)
- GI50 [17]: > 100 µM (inactive)
- GI50 [18]: > 100 µM (inactive)
- GI50 [19]: > 100 µM (inactive)
- GI50 [20]: > 100 µM (inactive)
- GI50 [21]: > 100 µM (inactive)
- GI50 [24]: > 100 µM (inactive)
- GI50 [25]: > 100 µM (inactive)
- GI50 [26]: > 100 µM (inactive)
- GI50 [27]: > 100 µM (inactive)
- GI50 [28]: > 100 µM (inactive)
- GI50 [29]: > 100 µM (inactive)
- GI50 [30]: > 100 µM (inactive)
- GI50 [31]: > 100 µM (inactive)
- GI50 [32]: > 100 µM (inactive)
- GI50 [33]: > 100 µM (inactive)
- GI50 [34]: > 100 µM (inactive)
- GI50 [35]: > 100 µM (inactive)
- GI50 [58]: > 100 µM (inactive)
- GI50 [36]: > 100 µM (inactive)
- GI50 [37]: > 100 µM
- GI50 [56]: > 100 µM (inactive)
- GI50 [38]: > 100 µM (inactive)
- GI50 [39]: > 100 µM (inactive)
- GI50 [40]: > 100 µM (inactive)
- GI50 [41]: > 100 µM (inactive)
- GI50 [59]: > 100 µM (inactive)
- GI50 [43]: > 100 µM (inactive)
- GI50 [44]: > 100 µM (inactive)
- GI50 [45]: > 100 µM (inactive)
- GI50 [46]: > 100 µM (inactive)
- GI50 [47]: > 100 µM (inactive)
- GI50 [48]: > 100 µM (inactive)
- GI50 [49]: > 100 µM (inactive)
- GI50 [50]: > 100 µM (inactive)
- GI50 [52]: > 100 µM (inactive)
- GI50 [53]: > 100 µM (inactive)
- GI50 [54]: > 100 µM (inactive)
- GI50 [57]: > 100 µM (inactive)

SMILES: CC1OC(=O)c2ccccc2NC1=O (stereo not drawn)
- GI50 [1]: > 100 µM (inactive)
- GI50 [2]: > 100 µM (inactive)
- GI50 [3]: > 100 µM (inactive)
- GI50 [4]: > 100 µM (inactive)
- GI50 [5]: > 100 µM (inactive)
- GI50 [6]: > 100 µM (inactive)
- GI50 [7]: > 100 µM (inactive)
- GI50 [8]: > 100 µM (inactive)
- GI50 [9]: > 100 µM (inactive)
- GI50 [10]: > 100 µM (inactive)
- GI50 [11]: > 100 µM (inactive)
- GI50 [12]: > 100 µM (inactive)
- GI50 [13]: > 100 µM (inactive)
- GI50 [14]: > 100 µM (inactive)
- GI50 [15]: > 100 µM (inactive)
- GI50 [17]: > 100 µM (inactive)
- GI50 [18]: > 100 µM (inactive)
- GI50 [19]: > 100 µM (inactive)
- GI50 [20]: > 100 µM (inactive)
- GI50 [21]: > 100 µM (inactive)
- GI50 [22]: > 100 µM (inactive)
- GI50 [55]: > 100 µM (inactive)
- GI50 [24]: > 100 µM (inactive)
- GI50 [25]: > 100 µM (inactive)
- GI50 [26]: > 100 µM (inactive)
- GI50 [27]: > 100 µM (inactive)
- GI50 [28]: > 100 µM (inactive)
- GI50 [29]: > 100 µM (inactive)
- GI50 [30]: > 100 µM (inactive)
- GI50 [31]: > 100 µM (inactive)
- GI50 [32]: > 100 µM (inactive)
- GI50 [33]: > 100 µM (inactive)
- GI50 [34]: > 100 µM (inactive)
- GI50 [35]: > 100 µM (inactive)
- GI50 [58]: > 100 µM (inactive)
- GI50 [36]: > 100 µM (inactive)
- GI50 [37]: > 100 µM
- GI50 [56]: > 100 µM (inactive)
- GI50 [38]: > 100 µM (inactive)
- GI50 [39]: > 100 µM (inactive)
- GI50 [40]: > 100 µM (inactive)
- GI50 [41]: > 100 µM (inactive)
- GI50 [59]: > 100 µM (inactive)
- GI50 [44]: > 100 µM (inactive)
- GI50 [45]: > 100 µM (inactive)
- GI50 [46]: > 100 µM (inactive)
- GI50 [47]: > 100 µM (inactive)
- GI50 [48]: > 100 µM (inactive)
- GI50 [49]: > 100 µM (inactive)
- GI50 [50]: > 100 µM (inactive)
- GI50 [51]: > 100 µM (inactive)
- GI50 [52]: > 100 µM (inactive)
- GI50 [53]: > 100 µM (inactive)
- GI50 [54]: > 100 µM (inactive)
- GI50 [57]: > 100 µM (inactive)
